Results from ChEMBL document CHEMBL5370630, “Design, Synthesis, and Biological Evaluation of SSE1806, a Microtubule Destabilizer That Overcomes Multidrug Resistance” (2023).
One block for each compound: values may come before it. Active and inactive are the calls of the source. The rule behind the calls is not given here.

Experiments:
CAL-51 [1] = test: Antiproliferative activity against human CAL-51 cells incubated for 72 hrs by SRB proliferation assay; assay type: functional
HCT-116 [2] = test: Antiproliferative activity against human HCT-116 cells incubated for 72 hrs by SRB proliferation assay; assay type: functional
KB 3-1 [3] = test: Cytotoxicity against human KB-3-1 cells assessed as inhibition of cell proliferation; assay type: functional
KB-V1 [4] = test: Cytotoxicity against multidrug resistant human KB-V1 cells assessed as inhibition of cell proliferation; assay type: functional
KB 3-1 [5] = test: Induction of apoptosis in human KB-3-1 cells assessed as increase in PARP cleavage at 100 uM incubated for 24 hrs by Western blot analysis; assay type: functional, cell-based
[6] = Resistance index, ratio of GI50 for multidrug resistant human KB-V1 cells to GI50 for human KB-3-1 cells; assay type: functional
CAL-51 [7] = test: Induction of mitotic arrest in human CAL-51 cells assessed as upregulation of histone H3 phosphorylation at S10 residue at 25 uM incubated for 8 hrs by dot blot assay; assay type: functional, cell-based
Tubulin (Homo sapiens) [8] = target: T1, Tubulin (Homo sapiens) (UniProt P68371+Q9H4B7+P0DPH7+P68366+Q13509+Q71U36+P04350+Q3ZCM7+P07437+P68363+Q9BQE3+Q6PEY2+Q13885+Q9BVA1+Q9BUF5); test: Inhibition of microtubule polymerization in human HCT-116 cells assessed as increase in soluble tubulin level at 1.25 to 5 times GI50 incubated for 5 mins by immunoblot analysis; assay type: cell-based
Tubulin (Homo sapiens) [9] = target: T1, Tubulin (Homo sapiens); test: Inhibition of microtubule polymerization in human HCT-116 cells assessed as decrease in polymeric tubulin level at 1.25 to 5 times GI50 incubated for 5 mins by immunoblot analysis; assay type: cell-based
Tubulin (Homo sapiens) [10] = target: T1, Tubulin (Homo sapiens); test: Inhibition of microtubule re-polymerization in human A549 cells at 5 times GI50 preincubated for 30 min on ice followed by incubation at 37 degreeC for 10 mins by immunofluorescence analysis; assay type: cell-based; conditions: time 40.0 min
MOLM-13 = test: Antitumor activity against human MOLM-13 cells by MTS assay; assay type: functional
[11] = Anticancer activity against human colon cancer organoids assessed as inhibition of cell viability measured after 4 days by Cell Titer Glo assay; assay type: functional; conditions: Colon cancer organoid, 96 h, time 4 day
HCT-116 [12] = test: Induction of apoptosis in human HCT-116 cells assessed as increase in apoptotic cell death at 2.5 to 5 times GI50 incubated for 24 hrs by Annexin V/PI staining based flow cytometric analysis; assay type: functional
KB-V1 [13] = test: Induction of apoptosis in multidrug resistant human KB-V1 cells assessed as increase in PARP cleavage at 1.25 to 5 uM incubated for 24 hrs by Western blot analysis; assay type: functional, cell-based; conditions: dose 1.25-5 µM
HCC1954 = test: Antitumor activity against human HCC1954 cells by MTS assay; assay type: functional
K562 = test: Antitumor activity against human K562 cells by MTS assay; assay type: functional
KB 3-1 [14] = test: Antitumor activity against human KB-3-1 cells by MTS assay; assay type: functional
HCT-116 [15] = test: Induction of apoptosis in human HCT-116 cells assessed as increase in PARP cleavage at 1.25 to 5 times GI50 incubated for 24 to 36 hrs by Western blot analysis; assay type: functional, cell-based; conditions: time 24-36 hrs
KB-V1 [16] = test: Inhibition of P-gp in human KB-V1 cells at 5 uM by calcein AM efflux assay; assay type: functional, cell-based
A549 [17] = test: Induction of mitotic arrest in human A549 cells assessed as increase in mitotic index by measuring histone H3 phosphorylation at S10 residue at 5 times GI50 incubated for 24 hrs by immunofluorescence analysis; assay type: functional, cell-based
BT-549 = test: Antitumor activity against human BT-549 cells by MTS assay; assay type: functional
MCF7 = test: Antitumor activity against human MCF7 cells by MTS assay; assay type: functional
HCT-116 [18] = test: Induction of cell cycle arrest in human HCT-116 cells accumulation of cells at G2/M phase incubated for 12 hrs by PI staining based flow cytometry analysis; assay type: functional
[19] = Anticancer activity against mouse colon cancer organoids expressing Apc fl/fl-Kras G12D-Tp53 KO-Smad4 KO assessed as inhibition of cell viability measured after 4 days by Cell Titer Glo assay; assay type: functional; conditions: Colon cancer organoid, 96 h, time 4 day
Tubulin (Homo sapiens) [20] = target: T1, Tubulin (Homo sapiens); test: Inhibition of microtubule polymerization (unknown origin) at 10 uM incubated for 1 hr by turbidimetric assay relative to control; assay type: protein-complex assay
KB 3-1 [21] = test: Induction of apoptosis in human KB-3-1 cells assessed as increase in PARP cleavage at 1.25 to 5 uM incubated for 24 hrs by Western blot analysis; assay type: functional, cell-based; conditions: dose 1.25-5 µM
HCT-116 [22] = test: Induction of mitotic arrest in human HCT-116 cells assessed as upregulation of histone H3 phosphorylation at S10 residue at 1.25 to 5 times GI50 measured for 8 to 16 hrs by Western blot analysis; assay type: functional, cell-based; conditions: time 8-16 hrs
A549 [23] = test: Induction of mitotic cell arrest in human A549 cells assessed as chromosome misalignment at 5 times GI50 incubated for 24 hrs by immunofluorescence based confocal microscopic analysis; assay type: functional
MV4-11 = test: Antitumor activity against human MV4-11 cells by MTS assay; assay type: functional
A549 [24] = test: Induction of mitotic cell arrest in human A549 cells assessed as defective spindles at 5 times GI50 incubated for 24 hrs by immunofluorescence based confocal microscopic analysis; assay type: functional
HCT-116 [25] = test: Induction of apoptosis in human HCT-116 cells assessed as increase in p53 expression at 1.25 to 5 times GI50 incubated for 24 to 36 hrs by Western blot analysis; assay type: functional, cell-based; conditions: time 24-36 hrs

GI50 (HCT-116 [2]): 4.64 µM
Compound: O=C1CCCC2=C1C(c1cccc(F)c1F)c1cc3c(cc1N2)OCCO3 (stereo unspecified)
GI50 (CAL-51 [1]): 4.63 µM

Compound: CC(=O)O[C@H]1C(=O)[C@@]2(C)[C@H]([C@H](OC(=O)c3ccccc3)[C@]3(O)C[C@H](OC(=O)[C@H](O)[C@@H](NC(=O)c4ccccc4)c4ccccc4)C(C)=C1C3(C)C)[C@]1(OC(C)=O)CO[C@@H]1C[C@@H]2O [PACLITAXEL]
GI50 (KB 3-1 [3]): 0.00223 µM | GI50 (KB-V1 [4]): 0.432 µM | Activity (KB 3-1 [5]): Active | RatioGI50 [6]: 193.51

Compound: COc1cc([C@@H]2c3cc4c(cc3[C@H](O)[C@H]3COC(=O)[C@H]23)OCO4)cc(OC)c1OC [PODOFILOX]
GI50 (CAL-51 [1]): 0.013 µM | GI50 (HCT-116 [2]): 0.013 µM

GI50 (HCT-116 [2]): 5.44 µM
Compound: O=C1CCCC2=C1C(c1ccc(F)c(F)c1)c1cc3c(cc1N2)OCCO3 (stereo unspecified)
GI50 (CAL-51 [1]): 7.94 µM

GI50 (HCT-116 [2]): 11.9 µM
Compound: COc1cccc(C2C3=C(CCCC3=O)Nc3cc4c(cc32)OCCO4)c1 (stereo unspecified)
Activity (CAL-51 [7]): Active | GI50 (CAL-51 [1]): 12.7 µM

inhibition (Tubulin (Homo sapiens) [8]): Active | GI50 (HCT-116 [2]): 0.24 µM | inhibition (Tubulin (Homo sapiens) [9]): Active | inhibition (Tubulin (Homo sapiens) [10]): Active
Compound: COC(=O)Nc1nc2cc(C(=O)c3cccs3)ccc2[nH]1 [NOCODAZOLE]
GI50 (CAL-51 [1]): 0.209 µM

GI50 (HCT-116 [2]): 3.33 µM
Compound: COc1cc(C2C3=C(CCCC3=O)Nc3cc4c(cc32)OCCO4)cc(OC)c1OC (stereo unspecified)
Activity (CAL-51 [7]): Active | GI50 (CAL-51 [1]): 4.15 µM

GI50 (HCT-116 [2]): 9.85 µM
Compound: O=C1CCCC2=C1C(c1ccco1)c1cc3c(cc1N2)OCCO3 (stereo unspecified)
Activity (CAL-51 [7]): Active | GI50 (CAL-51 [1]): 11.8 µM

inhibition (Tubulin (Homo sapiens) [8]): Active | GI50 (MOLM-13): 4.23 µM | GI50 (HCC1954): 21.2 µM | GI50 (K562): 17.7 µM | GI50 (KB 3-1 [14]): 1.29 µM | GI50 (BT-549): 7.05 µM | GI50 (MCF7): 5.02 µM | inhibition (Tubulin (Homo sapiens) [20]): Active | GI50 (HCT-116 [2]): 2.01 µM | GI50 (MV4-11): 9.45 µM | inhibition (Tubulin (Homo sapiens) [9]): Active | inhibition (Tubulin (Homo sapiens) [10]): Active
Compound: O=C1CCCC2=C1C(c1cccc([N+](=O)[O-])c1)c1cc3c(cc1N2)OCCO3 (stereo unspecified)
Activity (CAL-51 [7]): Active | GI50 (KB 3-1 [3]): 1.29 µM | GI50 (KB-V1 [4]): 1.74 µM | GI50 [11]: 11.6 µM | Activity (HCT-116 [12]): Active | Activity (KB-V1 [13]): Active | Activity (HCT-116 [15]): Active | inhibition (KB-V1 [16]): inactive | Activity (A549 [17]): Active | RatioGI50 [6]: 1.35 | Activity (HCT-116 [18]): Dose-Dependent Effect | GI50 [19]: 7.16 µM | GI50 (CAL-51 [1]): 3.3 µM | Activity (KB 3-1 [21]): Active | Activity (HCT-116 [22]): Active | Activity (A549 [23]): Active | Activity (A549 [24]): Active | Activity (HCT-116 [25]): Active

GI50 (HCT-116 [2]): > 100 µM
Compound: O=C1CCCC2=C1C(c1ccccc1)c1cc3c(cc1N2)OCCO3 (stereo unspecified)
Activity (CAL-51 [7]): Active | GI50 (CAL-51 [1]): 9.53 µM

GI50 (HCT-116 [2]): 18.4 µM
Compound: O=C1CCCC2=C1C(c1cccc(Cl)c1)c1cc3c(cc1N2)OCCO3 (stereo unspecified)
Activity (CAL-51 [7]): Active | GI50 (CAL-51 [1]): 12.6 µM

GI50 (HCT-116 [2]): 12.2 µM
Compound: COc1ccc(OC)c(C2C3=C(CCCC3=O)Nc3cc4c(cc32)OCCO4)c1 (stereo unspecified)
GI50 (CAL-51 [1]): 20.9 µM

GI50 (HCT-116 [2]): 0.006 µM
Compound: CC[C@]1(O)C[C@H]2CN(CCc3c([nH]c4ccccc34)[C@@](C(=O)OC)(c3cc4c(cc3OC)N(C=O)[C@H]3[C@@](O)(C(=O)OC)[C@H](OC(C)=O)[C@]5(CC)C=CCN6CC[C@]43[C@@H]65)C2)C1 [VINCRISTINE]
GI50 (CAL-51 [1]): 0.089 µM

GI50 (HCT-116 [2]): 17.3 µM
Compound: CN1C2=C(C(=O)CCC2)C(c2ccc(Br)cc2)c2cc3c(cc21)OCCO3 (stereo unspecified)
GI50 (CAL-51 [1]): 23.7 µM
